Measurements from PMC11283614 (Veterinary World, 2024).
In brackets after ≈: the same amount, converted by molar mass. Where two headings read alike, the source gives them in different places. Marks after values point to notes of the source that are not given here.

Assays:
[1] = in vitro; details: African green monkey
[2] = system: SARS-CoV-2; assay: Suppression of SARS-CoV-2 replication in Vero cells, CPE-based titration of supernatant; format: cell-based; details: for Time during which viral activity was inhibited: 100 TCD50/mL SARS-CoV-2, compounds added after 1 h virus incubation; for Suppression of viral activity: up to a dilution of 100 TCD50/ml
[3] = system: SARS-CoV-2 (delta strain); parameters: species or system Syrian hamsters; details: hamster, in vivo
[4] = system: SARS-CoV-2; assay: Blood cell populations (blood smears) of infected hamsters; format: in vivo, Syrian hamsters; details: 7 dpi, therapeutic action
[5] = system: SARS-CoV-2; assay: Myelogram / bone marrow cell populations of infected hamsters; format: in vivo, Syrian hamsters
[6] = system: SARS-CoV-2 (delta strain); parameters: species or system Syrian hamsters; details: hamster, in vivo; remark: listed apart in the source
[7] = Syrian, in vivo; for Number of dead hamsters after 2 days / Number of dead hamsters after 7 days: hamster
[8] = system: VERO cells; details: incubation 24 h

CSc1nnc2cc(C)nc(SC)n12 [5a]
CC50 [1]: 240 µg/mL (≈ 1060 µM)

COC(=O)CSc1nnc2cc(C)nc(SC)n12 [5c]
CC50 [1]: 40 µg/mL (≈ 141 µM)

CSc1nc(C)cc2nnc(SCCOc3ccccc3)n12 [5d]
Time during which viral activity was inhibited [2]: 24 to 72 h
Suppression of viral activity [2]: almost completely suppressed
Development of lung injury (micro-CT) [3]: inhibited
Blood cells: Band [4]: 19 ± 4.8%
Blood cells: Basophil [4]: 0.01%
Blood cells: Destroyed [4]: 1.0%
Blood cells: Eosinophil [4]: 0.1 ± 0.05%
Blood cells: Lymphoblast [4]: 0.9 ± 0.2%
Blood cells: Lymphocyte [4]: 65 ± 9.3%
Blood cells: Metamyelocyte [4]: 2 ± 0.5%
Blood cells: Monocyte [4]: 2.1 ± 0.3%
Blood cells: Myeloid [4]: 1.1 ± 0.1%
Blood cells: Segment [4]: 8.8%
Effect on bone marrow changes seen in the positive control group ([5]; 9th day): does not obstruct the similar bone marrow changes
Recovery of bone marrow cell populations compared to the positive control ([5]; 18th day): more rapid recovery of all cell populations
Myelogram: Band ([5]; infected hamsters, 9 dpi): 26.1 ± 4.4%
Myelogram: Basophil ([5]; infected hamsters, 9 dpi): 0.1 ± 0.04%
Myelogram: Basophil erythroblast ([5]; infected hamsters, 9 dpi): 4.6 ± 0.9%
Myelogram: Destroyed ([5]; infected hamsters, 9 dpi): 3.2 ± 0.3%
Myelogram: Eosinophil ([5]; infected hamsters, 9 dpi): 3.2 ± 0.4%
Myelogram: Limph.patol. ([5]; infected hamsters, 9 dpi): 1.1 ± 0.4%
Myelogram: Lymphoblast ([5]; infected hamsters, 9 dpi): 3.5 ± 0.6%
Myelogram: Lymphocyte ([5]; infected hamsters, 9 dpi): 8.9 ± 1.2%
Myelogram: Macroph. Island ([5]; infected hamsters, 9 dpi): 1.6 ± 0.03%
Myelogram: Macroph. Resident ([5]; infected hamsters, 9 dpi): 1.6 ± 0.05%
Myelogram: Megakaryoblast ([5]; infected hamsters, 9 dpi): 1.6 ± 0.02%
Myelogram: Megakaryocyte azurophil ([5]; infected hamsters, 9 dpi): 1.6 ± 0.1%
Myelogram: Megakaryocyte basophil ([5]; infected hamsters, 9 dpi): 1.6 ± 0.1%
Myelogram: Metamyelocyte ([5]; infected hamsters, 9 dpi): 5.2 ± 1.0%
Myelogram: Mitos ([5]; infected hamsters, 9 dpi): 1.6 ± 0.02%
Myelogram: Monoblast ([5]; infected hamsters, 9 dpi): 2.9 ± 0.7%
Myelogram: Monocyte ([5]; infected hamsters, 9 dpi): 3.8 ± 0.8%
Myelogram: Myeloid ([5]; infected hamsters, 9 dpi): 3.9 ± 0.5%
Myelogram: Ortochrom erythroblast ([5]; infected hamsters, 9 dpi): 8.8 ± 0.9%
Myelogram: Pathol neutrophil ([5]; infected hamsters, 9 dpi): 2.1 ± 0.5%
Myelogram: Polychromatophil erythroblast ([5]; infected hamsters, 9 dpi): 5.9 ± 2.1%
Myelogram: Proerythroblast ([5]; infected hamsters, 9 dpi): 3.1 ± 0.5%
Myelogram: Segment ([5]; infected hamsters, 9 dpi): 3.7 ± 0.5%
Myelogram: Band ([5]; infected hamsters, 18 dpi): 15.6 ± 3.1 %
Myelogram: Basophil ([5]; infected hamsters, 18 dpi): 0.01 ± 0.01%
Myelogram: Destroyed ([5]; infected hamsters, 18 dpi): 0.1 ± 0.01%
Myelogram: Eosinophil ([5]; infected hamsters, 18 dpi): 0.2 ± 0.01%
Myelogram: Limph.patol. ([5]; infected hamsters, 18 dpi): 0.1 ± 0.04 %
Myelogram: Lymphoblast ([5]; infected hamsters, 18 dpi): 2.3 ± 0.5%
Myelogram: Lymphocyte ([5]; infected hamsters, 18 dpi): 5.2 ± 0.8%
Myelogram: Macroph. Island ([5]; infected hamsters, 18 dpi): 0.1 ± 0.01%
Myelogram: Macroph. Resident ([5]; infected hamsters, 18 dpi): 0.1 ± 0.01%
Myelogram: Megakaryoblast ([5]; infected hamsters, 18 dpi): 0.03 ± 0.02%
Myelogram: Megakaryocyte azurophil ([5]; infected hamsters, 18 dpi): 0.01 ± 0.01%
Myelogram: Megakaryocyte basophil ([5]; infected hamsters, 18 dpi): 0.01 ± 0.01%
Myelogram: Metamyelocyte ([5]; infected hamsters, 18 dpi): 20.1 ± 4.3%
Myelogram: Mitos ([5]; infected hamsters, 18 dpi): 0.01 ± 0.01%
Myelogram: Monoblast ([5]; infected hamsters, 18 dpi): 1.0 ± 0.02%
Myelogram: Monocyte ([5]; infected hamsters, 18 dpi): 1.5 ± 0.4%
Myelogram: Myeloid ([5]; infected hamsters, 18 dpi): 14.3 ± 2.7%
Myelogram: Pathol neutrophil ([5]; infected hamsters, 18 dpi): 0.1 ± 0.01 %
Myelogram: Polychromatophil erythroblast ([5]; infected hamsters, 18 dpi): 17.9 ± 2.3 %
Myelogram: Segment ([5]; infected hamsters, 18 dpi): 3.3 ± 0.3 %
BM section histology (H&E) [6]: preserved structure and cellularity
BM smear [6]: restored erythroid population
Number of dead hamsters after 2 days ([7]; 0.2 mg/kg): 0
Number of dead hamsters after 7 days ([7]; 0.2 mg/kg): 0
Number of dead hamsters after 2 days ([7]; 1 mg/kg): 0
Number of dead hamsters after 7 days ([7]; 1 mg/kg): 0
CC50 [1]: 320 µg/mL (≈ 963 µM)

CSc1nnc2cc(C)nc(SCc3ccccc3)n12 [6a]
CC50 [1]: 20 µg/mL (≈ 66.1 µM)

Cc1cc2nnc(SCCOc3ccccc3)n2c(SCc2ccccc2)n1 [6d]
Monolayer preservation of VERO cells (toxicity) [8]: -
CC50 [1]: 320 µg/mL (≈ 783 µM)

CSc1nnc2ccc(-n3nc(C)cc3C)nn12 [10a]
CC50 [1]: 40 µg/mL (≈ 154 µM)

Cc1cc(C)n(-c2ccc3nnc(SCC(N)=O)n3n2)n1 [10b]
Time during which viral activity was inhibited [2]: 24 to 72 h
Suppression of viral activity [2]: almost completely suppressed
Development of lung injury (micro-CT) [3]: inhibited
Blood cells: Band [4]: 27 ± 8.6%
Blood cells: Destroyed [4]: 0.9 ± 0.02%
Blood cells: Eosinophil [4]: 0.1 ± 0.01%
Blood cells: Lymphoblast [4]: 4.0 ± 0.3%
Blood cells: Lymphocyte [4]: 42.3 ± 6.7%
Blood cells: Metamyelocyte [4]: 1.0 ± 0.1%
Blood cells: Monocyte [4]: 3.9 ± 0.9%
Blood cells: Myeloid [4]: 1 ± 0.05%
Blood cells: Pathol neutrophil [4]: 2.8 ± 0.7%
Blood cells: Segment [4]: 20%
Liver pathology (leukocyte / neutrophilic diapedesis) [6]: Absence of neutrophils in liver tissues
Number of dead hamsters after 2 days ([7]; 0.16 mg/kg): 0
Number of dead hamsters after 7 days ([7]; 0.16 mg/kg): 0
Number of dead hamsters after 2 days ([7]; 0.8 mg/kg): 0
Number of dead hamsters after 7 days ([7]; 0.8 mg/kg): 1 ^*
Autopsy and histological findings in dead hamster ([7]; 0.8 mg/kg): * Autopsy and histological studies revealed massive hemorrhages in the abdominal cavity and leukopenia. In all investigated preparations except 10b, no lethal effect was observed throughout the experiment. No abnormal appearance or behavior was noted in all investigated groups.
CC50 [1]: 240 µg/mL (≈ 791 µM)

Cc1cc(C)n(-c2ccc3nnc(SCCOc4ccccc4)n3n2)n1 [10d]
Time during which viral activity was inhibited [2]: 24 to 72 h
Suppression of viral activity [2]: almost completely suppressed
Development of lung injury (micro-CT) [3]: inhibited
Blood cells: Band [4]: 20.7 ± 7.3%
Blood cells: Basophil [4]: 0.01 ± 0.005%
Blood cells: Eosinophil [4]: 0.5 ± 0.01%
Blood cells: Lymphoblast [4]: 0.9 ± 0.1%
Blood cells: Lymphocyte [4]: 58 ± 6.2%
Blood cells: Metamyelocyte [4]: 3.1 ± 0.4%
Blood cells: Monoblast [4]: 1.0 ± 0.1%
Blood cells: Pathol neutrophil [4]: 0.9 ± 0.1%
Blood cells: Segment [4]: 13%
Spleen smear [6]: proliferation of late erythroblasts
Number of dead hamsters after 2 days ([7]; 0.32 mg/kg): 0
Number of dead hamsters after 7 days ([7]; 0.32 mg/kg): 0
Number of dead hamsters after 2 days ([7]; 1.6 mg/kg): 0
Number of dead hamsters after 7 days ([7]; 1.6 mg/kg): 0
CC50 [1]: 480 µg/mL (≈ 1310 µM)

Cc1cc(C)n(-c2ccc3nnc(C)n3n2)n1 [compound 8]
Time during which viral activity was inhibited [2]: 24 to 72 h
Suppression of viral activity [2]: almost completely suppressed
Development of lung injury (micro-CT) [3]: inhibited
Blood cells: Band [4]: 10.0 ± 2.7%
Blood cells: Destroyed [4]: 1.9 ± 0.3%
Blood cells: Eosinophil [4]: 0.5 ± 0.1%
Blood cells: Lymphoblast [4]: 1.1 ± 0.1%
Blood cells: Lymphocyte [4]: 77.2 ± 8.1%
Blood cells: Metamyelocyte [4]: 2.0 ± 0.6%
Blood cells: Monoblast [4]: 2.9 ± 0.5%
Blood cells: Monocyte [4]: 1.2 ± 0.1%
Blood cells: Segment [4]: 4%
LN section histology (H&E) [6]: preserved structure and cellularity
Lung pathology (diffuse lymphocytic-macrophage infiltrates) [6]: Mild pathological manifestations
Number of dead hamsters after 2 days ([7]; 0.3 mg/kg): 0
Number of dead hamsters after 7 days ([7]; 0.3 mg/kg): 0
Number of dead hamsters after 2 days ([7]; 1.5 mg/kg): 0
Number of dead hamsters after 7 days ([7]; 1.5 mg/kg): 0
CC50 [1]: 480 µg/mL (≈ 2100 µM)
